In PubChem BioAssay (NCI):
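48-hour exposure; five concentrations; linearly interpolated endpoints. GI50: concentration for 50% inhibition of growth. TGI denotes the concentration required for complete inhibition of growth.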

Tested on: MCF7 breast
Experiment: inhibition of tumour cell growth, NCI panel, 48 h

Q: How did the TGI turn out when `COc1cc(CCCOC2OC(COC3OCC(O)C(O)C3O)C(O)C(O)C2O)cc2cc(-c3ccc4c(c3)OCO4)oc12` (stereo not drawn) was run?
A: > 175 µM

Q: `CCOC(=O)c1ccc(C(=O)/C(C(=O)OC(C)(C)C)=C2\CCCN2C)n1C` was tested. Which TGI did it give?
A: > 100 µM

Q: How did the TGI turn out when `O=[N+]([O-])c1ccc2nc3c(nc2c1)-c1c2ccccc2cc2cccc-3c12` was run?
A: > 100 µM

Q: How did the TGI turn out when `C(=N/Nc1ccc(-c2nc3ccccc3[nH]2)cc1)/c1c(-c2ccccc2)[nH]c2ccccc12` was run?
A: > 100 µM

Q: How did the TGI turn out when `COc1cc(/C=C/c2cc(=O)cc(/C=C/c3ccc(O)c(OC)c3)o2)ccc1O` was run?
A: > 100 µM

Q: `NNC(=O)c1cccc2c1Oc1ccccc1S2` was tested. Which TGI did it give?
A: > 100 µM

Q: How did the TGI turn out when `COc1cc2c(cc1O)CC[n+]1cc3c(OC)c(OC)ccc3cc1-2` was run?
A: > 100 µM

Q: With `NS(=O)(=O)c1nnc(NSc2ccc([N+](=O)[O-])cc2)s1` as the molecule, how does the TGI read?
A: > 100 µM

Q: What does the source list for `Nc1nc(Nc2ccc(OCc3cccc(F)c3)cc2)c2c(n1)[nH]c1ccc(O)cc12`?
A: GI50: 2.87 µM; TGI: 11.8 µM

Q: With `CCCC[C@@H]1CCN2C[C@@H](O)[C@@H](O)[C@H]2[C@@H]1O` as the molecule, how does the TGI read?
A: > 100 µM

Q: `Cc1cc(C)nc(NS(=O)(=O)c2ccc(Nc3c4ccccc4nc4c(C(=O)NCCO)cccc34)cc2)n1` was tested. Which TGI did it give?
A: 42.8 µM

Q: With `CCOC(=O)c1csc(NC(=O)CCCC#N)n1` as the molecule, how does the TGI read?
A: > 100 µM

Q: Which TGI does the source give for `COc1ccc(CCCCl)c(C2=NCCc3ccccc32)c1` here?
A: > 100 µM

Q: How did the TGI turn out when `O=C(CN=C(CN(c1ccccc1)c1ccccc1)Oc1c(Cl)cc(Cl)cc1Cl)n1cnc2ccccc21` was run?
A: > 100 µM

Q: How did the TGI turn out when `C=C1CC=CC(C)(C)C1C/C=C(\C)C(O)CBr` (stereo not drawn) was run?
A: > 100 µM

Q: `CCOC(=O)C(C)NC(=O)N(C)C12CC3CC(CC(C3)C1)C2` (stereo not drawn) was tested. Which TGI did it give?
A: 395 µM

Q: `CCc1cc(=O)n(/C(C)=C/c2ccccc2)n1C` was tested. Which TGI did it give?
A: > 100 µM

Q: For `Nc1n[nH]c2ccccc12`, which TGI is on record?
A: > 100 µM

Q: `N/C(CSCCSC/C(N)=N/O)=N\O` was tested. Which TGI did it give?
A: > 100 µM

Tested on: SW-620 colon
Experiment: inhibition of tumour cell growth, NCI panel, 48 h

Q: Which TGI does the source give for `CC(O)(C(=O)N(O)c1ccc(Cl)cc1)c1ccc(Cl)cc1` (stereo not drawn) here?
A: > 100 µM

Q: For `CCOP(=O)(OCC)c1cc(-c2ccccc2)ccc1N`, which TGI is on record?
A: > 100 µM

Q: Which TGI does the source give for `CC1(C)[C@@H]2C[C@H]1c1cnc(-c3ccccn3)cc1[C@H]2C(O)[C@@H]1c2cc(-c3ccccn3)ncc2[C@H]2C[C@@H]1C2(C)C` (stereo partly drawn) here?
A: 47.1 µM

Q: `CC1(C)OC(CCO)CN1C(=O)OCc1ccccc1` (stereo not drawn) was tested. Which TGI did it give?
A: > 100 µM

Q: How did the TGI turn out when `COc1ccc(N2C(=O)C3c4[nH]c5ccccc5c4C4C(C)CCCC4C3C2=O)cc1` (stereo not drawn) was run?
A: > 100 µM

Q: `CCOC(=O)C1=C(C)NC(=O)N([N+](=O)[O-])C1c1ccccc1C(F)(F)F` (stereo not drawn) was tested. Which TGI did it give?
A: > 100 µM

Q: With `O=c1c(Cc2ccccc2)c(-c2ccccc2)[nH]n1C1=NCCN1` as the molecule, how does the TGI read?
A: > 100 µM

Q: How did the TGI turn out when `Brc1ccc2c(c1)-c1nc3c(cc1CC2)CCc1ccc(Br)cc1-3` was run?
A: > 100 µM

Q: `CCOC(=O)Cc1nn2c(=O)cc(C)nc2s1` was tested. Which TGI did it give?
A: > 100 µM

Q: With `COP(=O)(CC(=O)C1OC(OCc2ccccc2)C(OCc2ccccc2)C(OCc2ccccc2)C1OCc1ccccc1)OC` (stereo not drawn) as the molecule, how does the TGI read?
A: > 100 µM

Q: How did the TGI turn out when `CN1c2ccccc2C(=O)NC12CCN(CC1COc3ccccc3O1)CC2` (stereo not drawn) was run?
A: > 100 µM

Q: How did the TGI turn out when `CCOC1NC(=O)c2ccccc21` (stereo not drawn) was run?
A: > 100 µM

Q: For `CCN(C(=O)N[C@H](C(=O)N[C@@H](C)C(=O)OC)C(C)C)c1ccccc1`, which TGI is on record?
A: > 100 µM

Q: Which TGI does the source give for `Cc1cn(C2CC(OC(c3ccccc3)(c3ccccc3)c3ccccc3)C(COC(c3ccccc3)(c3ccccc3)c3ccccc3)O2)c(=O)[nH]c1=O` (stereo not drawn) here?
A: > 100 µM

Q: With `COc1cc(CCCOC2OC(COC3OCC(O)C(O)C3O)C(O)C(O)C2O)cc2cc(-c3ccc4c(c3)OCO4)oc12` (stereo not drawn) as the molecule, how does the TGI read?
A: > 175 µM

Q: With `CCOC(=O)c1ccc(C(=O)/C(C(=O)OC(C)(C)C)=C2\CCCN2C)n1C` as the molecule, how does the TGI read?
A: > 100 µM

Q: `O=[N+]([O-])c1ccc2nc3c(nc2c1)-c1c2ccccc2cc2cccc-3c12` was tested. Which TGI did it give?
A: > 100 µM

Q: With `C(=N/Nc1ccc(-c2nc3ccccc3[nH]2)cc1)/c1c(-c2ccccc2)[nH]c2ccccc12` as the molecule, how does the TGI read?
A: 75 µM

Q: With `COc1cc(/C=C/c2cc(=O)cc(/C=C/c3ccc(O)c(OC)c3)o2)ccc1O` as the molecule, how does the TGI read?
A: > 100 µM

Q: For `NNC(=O)c1cccc2c1Oc1ccccc1S2`, which TGI is on record?
A: > 100 µM

Q: Which TGI does the source give for `COc1cc2c(cc1O)CC[n+]1cc3c(OC)c(OC)ccc3cc1-2` here?
A: > 100 µM

Q: With `NS(=O)(=O)c1nnc(NSc2ccc([N+](=O)[O-])cc2)s1` as the molecule, how does the TGI read?
A: > 100 µM

Q: With `Nc1nc(Nc2ccc(OCc3cccc(F)c3)cc2)c2c(n1)[nH]c1ccc(O)cc12` as the molecule, how does the GI50 read?
A: 2.54 µM

Q: What about the TGI of the same molecule?
A: 6.26 µM

Q: `CCCC[C@@H]1CCN2C[C@@H](O)[C@@H](O)[C@H]2[C@@H]1O` was tested. Which TGI did it give?
A: > 100 µM

Q: For `Cc1cc(C)nc(NS(=O)(=O)c2ccc(Nc3c4ccccc4nc4c(C(=O)NCCO)cccc34)cc2)n1`, which TGI is on record?
A: > 100 µM

Q: How did the TGI turn out when `CCOC(=O)c1csc(NC(=O)CCCC#N)n1` was run?
A: > 100 µM

Q: `COc1ccc(CCCCl)c(C2=NCCc3ccccc32)c1` was tested. Which TGI did it give?
A: > 100 µM

Q: How did the TGI turn out when `O=C(CN=C(CN(c1ccccc1)c1ccccc1)Oc1c(Cl)cc(Cl)cc1Cl)n1cnc2ccccc21` was run?
A: > 100 µM

Q: For `C=C1CC=CC(C)(C)C1C/C=C(\C)C(O)CBr` (stereo not drawn), which TGI is on record?
A: 97.4 µM

Q: How did the TGI turn out when `CCOC(=O)C(C)NC(=O)N(C)C12CC3CC(CC(C3)C1)C2` (stereo not drawn) was run?
A: 494 µM

Q: Which TGI does the source give for `CCc1cc(=O)n(/C(C)=C/c2ccccc2)n1C` here?
A: > 100 µM

Q: How did the TGI turn out when `Nc1n[nH]c2ccccc12` was run?
A: > 100 µM

Q: With `N/C(CSCCSC/C(N)=N/O)=N\O` as the molecule, how does the TGI read?
A: > 100 µM

Tested on: SK-MEL-2 melanoma
Experiment: inhibition of tumour cell growth, NCI panel, 48 h

Q: Which TGI does the source give for `CC(O)(C(=O)N(O)c1ccc(Cl)cc1)c1ccc(Cl)cc1` (stereo not drawn) here?
A: 50.1 µM

Q: Which TGI does the source give for `CCOP(=O)(OCC)c1cc(-c2ccccc2)ccc1N` here?
A: > 100 µM

Q: `CC1(C)[C@@H]2C[C@H]1c1cnc(-c3ccccn3)cc1[C@H]2C(O)[C@@H]1c2cc(-c3ccccn3)ncc2[C@H]2C[C@@H]1C2(C)C` (stereo partly drawn) was tested. Which TGI did it give?
A: 13 µM

Q: With `CC1(C)OC(CCO)CN1C(=O)OCc1ccccc1` (stereo not drawn) as the molecule, how does the TGI read?
A: > 100 µM

Q: Which TGI does the source give for `COc1ccc(N2C(=O)C3c4[nH]c5ccccc5c4C4C(C)CCCC4C3C2=O)cc1` (stereo not drawn) here?
A: > 100 µM

Q: `CCOC(=O)C1=C(C)NC(=O)N([N+](=O)[O-])C1c1ccccc1C(F)(F)F` (stereo not drawn) was tested. Which TGI did it give?
A: > 100 µM

Q: How did the TGI turn out when `O=c1c(Cc2ccccc2)c(-c2ccccc2)[nH]n1C1=NCCN1` was run?
A: > 100 µM

Q: Which TGI does the source give for `Brc1ccc2c(c1)-c1nc3c(cc1CC2)CCc1ccc(Br)cc1-3` here?
A: > 100 µM

Q: For `CCOC(=O)Cc1nn2c(=O)cc(C)nc2s1`, which TGI is on record?
A: > 100 µM

Q: With `COP(=O)(CC(=O)C1OC(OCc2ccccc2)C(OCc2ccccc2)C(OCc2ccccc2)C1OCc1ccccc1)OC` (stereo not drawn) as the molecule, how does the TGI read?
A: 11 µM

Q: Which TGI does the source give for `CCN(C(=O)N[C@H](C(=O)N[C@@H](C)C(=O)OC)C(C)C)c1ccccc1` here?
A: 78.3 µM

Q: How did the TGI turn out when `Cc1cn(C2CC(OC(c3ccccc3)(c3ccccc3)c3ccccc3)C(COC(c3ccccc3)(c3ccccc3)c3ccccc3)O2)c(=O)[nH]c1=O` (stereo not drawn) was run?
A: > 100 µM

Q: With `COc1cc(CCCOC2OC(COC3OCC(O)C(O)C3O)C(O)C(O)C2O)cc2cc(-c3ccc4c(c3)OCO4)oc12` (stereo not drawn) as the molecule, how does the TGI read?
A: > 175 µM

Q: Which TGI does the source give for `CCOC(=O)c1ccc(C(=O)/C(C(=O)OC(C)(C)C)=C2\CCCN2C)n1C` here?
A: > 100 µM

Q: With `O=[N+]([O-])c1ccc2nc3c(nc2c1)-c1c2ccccc2cc2cccc-3c12` as the molecule, how does the TGI read?
A: 90 µM

Q: Which TGI does the source give for `C(=N/Nc1ccc(-c2nc3ccccc3[nH]2)cc1)/c1c(-c2ccccc2)[nH]c2ccccc12` here?
A: 0.794 µM

Q: Which TGI does the source give for `COc1cc(/C=C/c2cc(=O)cc(/C=C/c3ccc(O)c(OC)c3)o2)ccc1O` here?
A: > 100 µM

Q: How did the TGI turn out when `NNC(=O)c1cccc2c1Oc1ccccc1S2` was run?
A: > 100 µM

Q: For `COc1cc2c(cc1O)CC[n+]1cc3c(OC)c(OC)ccc3cc1-2`, which TGI is on record?
A: > 100 µM

Q: How did the TGI turn out when `NS(=O)(=O)c1nnc(NSc2ccc([N+](=O)[O-])cc2)s1` was run?
A: > 100 µM

Q: For `Nc1nc(Nc2ccc(OCc3cccc(F)c3)cc2)c2c(n1)[nH]c1ccc(O)cc12`, which GI50 is on record?
A: 2.61 µM

Q: And the TGI?
A: 7.71 µM

Q: How did the TGI turn out when `CCCC[C@@H]1CCN2C[C@@H](O)[C@@H](O)[C@H]2[C@@H]1O` was run?
A: > 100 µM

Q: `Cc1cc(C)nc(NS(=O)(=O)c2ccc(Nc3c4ccccc4nc4c(C(=O)NCCO)cccc34)cc2)n1` was tested. Which TGI did it give?
A: 35.7 µM
